Laboratory results as given in PMC8765781, “A platform of assays for the discovery of anti-Zika small-molecules with activity in a 3D-bioprinted outer-blood-retina model” (PLoS ONE, 2022).
Like-named read-outs stand apart in the source and are kept apart here.

What was measured:
in vitro [1] = details: human
in vitro [2] = details: African green monkey
[3] = test system: ZIKV-RLuc (Cambodian strain FSS13025); test: microbe, parasite or virus in culture; format: cell-based, Zika virus; details: for IC50 / AC50: Zika virus, Vero; for IC50: 48 h, read-out: Rluc-ZIKV (ZIKV Antiviral Assays), IC50
[4] = test system: mCherry-ZIKV in human neuronal progenitor cells; test: microbe, parasite or virus in culture; format: cell-based, Zika virus
[5] = test system: ZIKV-mCherry (Cambodian strain FSS13025); test: microbe, parasite or virus in culture; format: cell-based, Zika virus; details: for AC50: Zika virus, Vero
[6] = test system: caspase-3 activity induced by ZIKV in Vero cells; test: cells; format: cell-based; details: Zika virus, read-out: Caspase 3 (ZIKV Antiviral Assays), IC50
[7] = test system: wild-type ZIKV (Ugandan MR766 strain) in Vero cells; test: ZIKV cytopathic effect (CPE) inhibition qHTS assay, CellTiter-Glo readout; format: cell-based, Zika virus; details: for IC50: read-out: ZIKV-infection (CPE, ZIKV Antiviral Assays), IC50
[8] = test system: DENV (Dengue virus type 2, strain New Guinea C)
in vitro [9] = details: human; remark: listed apart in the source
[10] = Zika virus, Vero, read-out: Log AC50 (M) (converted)
[11] = read-out: Log AC50 (M) (converted)

Compound	CC50 (in vitro [2]) [µM]	IC50 [3] [µM]	CC-v2 (curve class of the dose response curve) [5]	Efficacy (difference between neutral response and maximum compound response) [5]	Max Resp (difference between neutral response and response at highest compound concentration) [5]	IC50 ([6]; Vero, 48 h) [µM]	Efficacy [7]	AC50 ([7]; Zika virus, Vero) [M]	IC50 ([7]; Zika virus, Vero, 48 h) [µM]	AC50 [7, 10] [M]	CC50 (in vitro [9]) [µM]	CC50 at 48 h (in vitro [2]; Vero cells) [µM]	AC50 [5] [M]	AC50 [5, 11] [M]	CC-v2 (curve class classification of the dose response curve) [7]	further results
CCC[S+](=O)([O-])Nc1ccc(F)c(C(=O)c2c[nH]c3ncc(-c4ccc(Cl)cc4)cc23)c1F [NCGC00250399-05]	> 50	9.28	5	0	-69.344	8.31	-40.165	1.46e-06	1.46	1.46e-06						CC50 (in vitro [1]): > 30 µM; SI value WHV (CC50/EC50) (WNV (Kern515/WN02)): 2; Selectivity Index WHV (CC50/EC50) (WNV (Kern515/WN02)): 2; WHV active Yes/No (WNV (Kern515/WN02)): No; YFV active Yes/No (YFV (YFV 17D)): No; CC-v2 (curve class) [4]: 4; Efficacy [4]: -22.524; Max Resp [4]: -6.687; IC50 ([4]; Zika virus, Neuronal progenitor cell, read-out: NPC (ZIKV Antiviral Assays), IC50): 35.5 µM; SI value ZIKV (CC50/EC50) (ZIKV): 14; Selectivity Index ZIKV (CC50/EC50) (ZIKV): 14; ZIKV active Yes/No (ZIKV): Yes; DENV active Yes/No [8]: Yes; SI value DENV (CC50/EC50) [8]: 4.3; Selectivity Index DENV (CC50/EC50) [8]: 4
COc1cccc(-n2nc(C(=O)O)cc2-c2ccc(C3CCCCC3)c(Cl)c2)c1 [NCGC00379183-01]		18.5	5	-42.035	-100.305	26.3	-41.012	2.91e-05	29.1	2.91e-05	25.1	> 50	1.68e-05	1.68e-05	-3	CC-v2 (curve class) [4]: -3; Efficacy [4]: -112.723; Max Resp [4]: -95.876; AC50 ([4]; Zika virus, Neuronal progenitor cell): 5.01e-05 M; AC50 ([4]; Zika virus, Neuronal progenitor cell, read-out: Log AC50 (M) (converted)): 5.01e-05 M
C[C@H]1CC[C@@]2(OC1)O[C@H]1CC3C4CC=C5C[C@H](O)C[C@@H](O[C@@H]6O[C@@H](C)[C@H](O)[C@@H](O)[C@H]6O[C@@H]6O[C@@H](C)[C@H](O)[C@@H](O)[C@H]6O)[C@]5(C)C4CC[C@]3(C)[C@H]1[C@@H]2C (stereo partly shown) [NCGC00380128-01, Ophiopogonin B]		8.74	-1.4	-59.028	-100.132						> 30					CC50 at 48 h (in vitro [2]): > 50 µM; IC50 ([6]; ZIKV-infected Vero cells, 48 hr, unit inferred): > 48 µM; AC50 ([7]; Zika virus, Vero, from Hill fit of the response curve, 50% of maximum activity response, 194 cherry-picked compounds, protocol name not given, read-out: AC50): 1.72e-05 M; AC50 ([7]; Zika virus, Vero, potency in log units (Molar) from Hill fit of the response curve, 194 cherry-picked compounds, protocol name not given, read-out: Log AC50 (converted)): 1.72e-05 M; IC50 ([7]; Zika virus, Vero cells, wild-type ZIKV MOI 1, 48 hr, unit inferred): 17.2 µM; CC-v2 (curve class classification of the dose response curve) ([7]; curve class v2 (Inglese et al. 2006)): -2.2; Efficacy ([7]; difference between neutral response and maximum compound response): -28.987
COc1ccc([C@H]2OC[C@H]3O[C@@H](O[C@H]4[C@@H]2NC[C@@H]4O)[C@H](O)[C@H]3O)cc1 [NCGC00380307-01]		2.28	-1.2	-48.259	-100.305	6.46	-66.527	2.27e-05	22.7	2.27e-05	> 30	> 50	1.31e-07	1.31e-07	-1.2	
C=C(CO)[C@@]12O[C@@H]1[C@@]1(C)C(=CC2=O)CC[C@@H](O)[C@@H]1C [NCGC00380396-01]	> 50	4.14	-1.2	-43.557	-98.628	0.01	-65.778	8.2e-06	8.2	8.2e-06	> 30		1.34e-06	1.34e-06	-1.2	
COc1cc2c(cc1OC)[C@@H]1[C@H](O)[C@@H](OC)C=C3CCN(C2)[C@H]31 [NCGC00384634-01]	> 50	4.55	-1.2	-42.96	-99.819	1.29	-55.9	5.7e-06	5.7	5.7e-06	> 30		8.26e-07	8.26e-07	-1.2	
COc1ccc(C(O)C(C)OC2OC(CO)C(O)C(O)C2O)cc1 (stereo not shown) [NCGC00385130-01]		0.001	4	0	-28.221	0.01	-87.993	2.02e-05	20.2	2.02e-05	> 30	> 50			-3	
CC1(C)CC2C(O)C3=C(CC(C)(O)C2C1)C(=O)OC3 (stereo not shown) [NCGC00385131-01]		0.02	-1.2	-69.698	-44.202	8.31	-83.269	2.31e-05	23.1		> 30	> 50	2.67e-09	2.67e-09		WHV active Yes/No (WNV (Kern515/WN02)): No; YFV active Yes/No (YFV (YFV 17D)): No; ZIKV active Yes/No (ZIKV): No; Curve class [7]: -3; AC50 ([7]; Zika virus, Vero, read-out: Log AC50 (converted)): 2.31e-05 M; Emax ([7]; Zika virus, Vero, read-out: Max response): 3.01%; DENV active Yes/No [8]: No
CC(=O)OC[C@]12[C@H](OC(C)=O)C(=O)[C@@H]3[C@@H](O)[C@@]14O[C@@]3(C)COC(=O)c1cccnc1[C@@H](C)[C@H](C)C(=O)O[C@@H]([C@H](OC(C)=O)[C@@H]2OC(C)=O)[C@]4(C)O [NCGC00385298-01]	> 50	9.81	-1.3	-66.581	-100.048	9.86	-97.679	1.72e-05	17.2	1.72e-05	> 30		3.53e-06	3.53e-06	-2.1	AC50 (Vero cells): 9.81 µM; Log AC50 (M) (Vero cells): -5.0083 M; CC-v2 (curve class classification v2 of the dose response curve) [3]: -2.3; Efficacy (difference between neutral response and maximum compound response) [3]: -117.521; Max Resp (difference between neutral response and compound response for highest compound concentration) [3]: -98.025; AC50 [3]: 9.81e-06 M; AC50 [3, 11]: 9.81e-06 M
COc1cc2c(c(OC)c1CC=C(C)C)C[C@H](c1ccc(O)c(CC=C(C)C)c1O)CO2 [NCGC00385627-01]		11.5	4	-33.338	-100.29	16.3	-25.574	1.78e-05	17.8	1.78e-05	> 30	> 50				
CN[C@H](CC(C)C)C(=O)N[C@H]1C(=O)N[C@@H](CC(N)=O)C(=O)N[C@H]2C(=O)N[C@H]3C(=O)N[C@H](C(=O)N[C@H](C(=O)O)c4cc(O)cc(O)c4-c4cc3ccc4O)[C@H](O[C@H]3C[C@](C)(N)[C@@H](O)[C@H](C)O3)c3ccc(c(Cl)c3)Oc3cc2cc(c3O[C@@H]2O[C@H](CO)[C@@H](O)[C@H](O)[C@H]2O[C@H]2C[C@](C)(NCc3ccc(-c4ccc(Cl)cc4)cc3)[C@@H](O)[C@H](C)O2)Oc2ccc(cc2Cl)[C@H]1O [NCGC00485478-01]	> 50	12.3	4	0	-93.894	> 48	-25.057	1.37e-05	13.7	1.37e-05	> 30					
